Holding throughout (format): in vivo
The subject of one assay is Kochia (Kochia scoparia). In words: Test A preemergence. The note with it: Bassia scoparia, pre-emergence, 240 h; for pest or weed control at 125 g/ha: 125 g ai/ha; for pest or weed control at 500 g/ha: 500 g ai/ha. In a few lines:
(§1)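 Visual injury, scored on a 0–100 scale relative to untreated controls, was recorded about 10 d after application. Treatments were a preemergence soil spray over planted seeds or a postemergence spray on plants at the one- to two-leaf stage, 2 to 10 cm tall, all in loam soil–sand blend in the greenhouse.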

The subject of assay [1] is barnyardgrass (Echinochloa crus-galli). In words: Test A preemergence. The following applies: Echinochloa crus-galli, pre-emergence, 240 h; for pest or weed control at 125 g/ha: 125 g ai/ha; for pest or weed control at 500 g/ha: 500 g ai/ha. In a few lines:
as §1

For assay [2], the system named is giant foxtail (Setaria faberii). In words: Test A preemergence. The following applies: Setaria faberi, pre-emergence, 240 h; for pest or weed control at 125 g/ha: 125 g ai/ha; for pest or weed control at 500 g/ha: 500 g ai/ha. The essentials:
as §1

Assay [3] relates to pigweed (Amaranthus retroflexus). In words: Test A preemergence. The note with it: Amaranthus retroflexus, pre-emergence, 240 h; for pest or weed control at 125 g/ha: 125 g ai/ha; for pest or weed control at 500 g/ha: 500 g ai/ha.
In assay [4] the test system is ragweed (common ragweed, Ambrosia elatior). Nature of the assay: Test A preemergence. The note with it: Ambrosia artemisiifolia, pre-emergence, 240 h; for pest or weed control at 125 g/ha: 125 g ai/ha; for pest or weed control at 500 g/ha: 500 g ai/ha. In a few lines:
as §1

Assay [5] deals with ryegrass, Italian (Italian ryegrass, Lolium multiflorum). Nature of the assay: Test A preemergence. The following applies: Lolium multiflorum, pre-emergence, 240 h; for pest or weed control at 125 g/ha: 125 g ai/ha; for pest or weed control at 500 g/ha: 500 g ai/ha. The essentials:
as §1

The subject of assay [6] is Galium (catchweed bedstraw, Galium aparine). In words: Test A postemergence. The note with it: Galium, post-emergence, 240 h, 125 g ai/ha. In a few lines: as §1
Assay [7] relates to barnyardgrass (Echinochloa crus-galli). Nature of the assay: Test A postemergence. The following applies: Echinochloa crus-galli, post-emergence, 240 h, 125 g ai/ha. The essentials: as §1
The test system of the next assay is corn (Zea mays). In words: Test A postemergence. The note with it: Zea mays, post-emergence, 240 h, 125 g ai/ha. In a few lines: as §1
Assay [8] has as its system ragweed (common ragweed, Ambrosia elatior). Nature of the assay: Test A postemergence. The note with it: Ambrosia artemisiifolia, post-emergence, 240 h, 125 g ai/ha. The essentials:
as §1

Assay [9] has as its system barnyardgrass (Echinochloa crus-galli). In words: Test B flooded paddy test. The note with it: Echinochloa crus-galli, Flood, 250 g ai/ha; scale of 0 to 100 where 0 is no effect and 100 is complete control; read-out: Barnyardgrass plant response rating. The essentials:
(§2)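 Compound goes directly into floodwater once pots are flooded 3 cm above soil, targeting plants at two leaves; the water depth is then held for the test duration. Plants sit 13–15 d in a greenhouse and are rated visually, 100 denoting complete control.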

Assay [10] concerns ducksalad (Heteranthera limosa). Nature of the assay: Test B flooded paddy test. The following applies: Heteranthera limosa, Flood, 250 g ai/ha; scale of 0 to 100 where 0 is no effect and 100 is complete control; read-out: Ducksalad plant response rating. In a few lines: as §2
A further assay deals with rice (Oryra sativa). In words: Test B flooded paddy test. The following applies: Oryza sativa, Flood, 250 g ai/ha; scale of 0 to 100 where 0 is no effect and 100 is complete control; read-out: Rice plant response rating. In a few lines: as §2
Assay [11] has as its system sedge, umbrella (small-flower umbrella sedge, Cyperus difformis). In words: Test B flooded paddy test. The following applies: Cyperus difformis, Flood, 250 g ai/ha; scale of 0 to 100 where 0 is no effect and 100 is complete control; read-out: Sedge, Umbrella plant response rating. The essentials:
as §2

Where two headings read alike, the source gives them in different places.

In the case of `CN1C[C@H](c2cccc(OC(F)(F)C(F)F)c2)[C@@H](C(=O)Nc2ccccc2S(C)(=O)=O)C1=O` [Compound 864], the pest or weed control at 125 g/ha with Kochia (Kochia scoparia) (preemergence, 0 to 100 scale where 0 is no effect and 100 is complete control, read-out: Kochia plant response rating) stood at 60%; in assay [1] (preemergence, 0 to 100 scale where 0 is no effect and 100 is complete control, read-out: Barnyardgrass plant response rating) it was 90%; in assay [2] (preemergence, 0 to 100 scale where 0 is no effect and 100 is complete control, read-out: Foxtail, Giant plant response rating) it was 90%; in assay [3] (preemergence, 0 to 100 scale where 0 is no effect and 100 is complete control, read-out: Pigweed plant response rating), 90%; in [4] (preemergence, 0 to 100 scale where 0 is no effect and 100 is complete control, read-out: Ragweed plant response rating), 20%; in assay [5] (preemergence, 0 to 100 scale where 0 is no effect and 100 is complete control, read-out: Ryegrass, Italian plant response rating), 0%. Also, the pest or weed control at 125 g/ha in assay [6] (postemergence, visual injury rating after approximately 10 d, read-out: Galium plant response rating (0 to 100 scale, 0 no effect, 100 complete control)) was 20%; in assay [7] (postemergence, visual injury rating after approximately 10 d, read-out: Barnyardgrass plant response rating (0 to 100 scale, 0 no effect, 100 complete control)) it was 90%; in assay [8] (postemergence, visual injury rating after approximately 10 d, read-out: Ragweed plant response rating (0 to 100 scale, 0 no effect, 100 complete control)), 0%. In addition, the pest or weed control at 500 g/ha in the assay with Kochia (Kochia scoparia) (Preemergence, visual injury vs untreated controls after approximately 10 d, read-out: Kochia plant response rating (0 to 100 scale where 0 is no effect and 100 is complete control)) is 80%; in assay [1] (Preemergence, visual injury vs untreated controls after approximately 10 d, read-out: Barnyardgrass plant response rating (0 to 100 scale where 0 is no effect and 100 is complete control)) it was 90%; in assay [2] (Preemergence, visual injury vs untreated controls after approximately 10 d, read-out: Foxtail, Giant plant response rating (0 to 100 scale where 0 is no effect and 100 is complete control)) it was 90%; in [3] (Preemergence, visual injury vs untreated controls after approximately 10 d, read-out: Pigweed plant response rating (0 to 100 scale where 0 is no effect and 100 is complete control)), 90%; in [4] (Preemergence, visual injury vs untreated controls after approximately 10 d, read-out: Ragweed plant response rating (0 to 100 scale where 0 is no effect and 100 is complete control)), 50%; in [5] (Preemergence, visual injury vs untreated controls after approximately 10 d, read-out: Ryegrass, Italian plant response rating (0 to 100 scale where 0 is no effect and 100 is complete control)) it was 50%. For the same compound, the plant injury at 125 g/ha in the assay with corn (Zea mays) (postemergence, visual injury rating after approximately 10 d, read-out: Corn plant response rating (0 to 100 scale, 0 no effect, 100 complete control)) was 60%. Moreover, the pest or weed control at 250 g/ha stood at 50% in assay [9], 90% in assay [10], 40% with rice (Oryra sativa) and 50% in [11].

On to `Cc1cc([C@H]2CN(C)C(=O)[C@@H]2C(=O)Nc2ccccc2S(C)(=O)=O)ccc1Cl` [Compound 944], for which the pest or weed control at 125 g/ha came to 0% in the assay with Kochia (Kochia scoparia) (Preemergence, visual injury rating after approximately 10 d, read-out: Kochia plant response rating (0 to 100 scale, 0 is no effect, 100 is complete control)); 90% in [1] (Preemergence, visual injury rating after approximately 10 d, read-out: Barnyardgrass plant response rating (0 to 100 scale, 0 is no effect, 100 is complete control)); 90% in assay [2] (Preemergence, visual injury rating after approximately 10 d, read-out: Foxtail, Giant plant response rating (0 to 100 scale, 0 is no effect, 100 is complete control)); 0% in assay [3] (Preemergence, visual injury rating after approximately 10 d, read-out: Pigweed plant response rating (0 to 100 scale, 0 is no effect, 100 is complete control)); 50% in assay [4] (Preemergence, visual injury rating after approximately 10 d, read-out: Ragweed plant response rating (0 to 100 scale, 0 is no effect, 100 is complete control)); 0% in assay [5] (Preemergence, visual injury rating after approximately 10 d, read-out: Ryegrass, Italian plant response rating (0 to 100 scale, 0 is no effect, 100 is complete control)). Further, the pest or weed control at 125 g/ha in assay [6] (Postemergence, visual injury after approximately 10 d, 0 to 100 scale where 0 is no effect and 100 is complete control, read-out: Plant response rating, Galium) was found to be 20%; in assay [7] (Postemergence, visual injury after approximately 10 d, 0 to 100 scale where 0 is no effect and 100 is complete control, read-out: Plant response rating, Barnyardgrass), 80%; in assay [8] (Postemergence, visual injury after approximately 10 d, 0 to 100 scale where 0 is no effect and 100 is complete control, read-out: Plant response rating, Ragweed) it was 40%. In addition, the pest or weed control at 500 g/ha in the assay on Kochia (Kochia scoparia) (preemergence, visual injury rating about 10 d after treatment, 0 to 100 scale (0 no effect, 100 complete control), read-out: Kochia plant response rating) turned out to be 70%; in [1] (preemergence, visual injury rating about 10 d after treatment, 0 to 100 scale (0 no effect, 100 complete control), read-out: Barnyardgrass plant response rating) it was 90%; in assay [2] (preemergence, visual injury rating about 10 d after treatment, 0 to 100 scale (0 no effect, 100 complete control), read-out: Foxtail, Giant plant response rating) it was 90%; in assay [3] (preemergence, visual injury rating about 10 d after treatment, 0 to 100 scale (0 no effect, 100 complete control), read-out: Pigweed plant response rating) it was 20%; in [4] (preemergence, visual injury rating about 10 d after treatment, 0 to 100 scale (0 no effect, 100 complete control), read-out: Ragweed plant response rating), 50%; in assay [5] (preemergence, visual injury rating about 10 d after treatment, 0 to 100 scale (0 no effect, 100 complete control), read-out: Ryegrass, Italian plant response rating) it was 0%. In the assay on corn (Zea mays) (Postemergence, visual injury after approximately 10 d, 0 to 100 scale where 0 is no effect and 100 is complete control), this compound registered a Corn plant response rating (crop injury, 0 = no effect, 100 = complete kill) at 125 g/ha of 30%. The pest or weed control at 250 g/ha in [9] was 40%; in assay [10], 75%; in the assay on rice (Oryra sativa) it was 0%; in [11] it was 0%.

(Values after patent publication US12077503B2, “Substituted cyclic amides and their use as herbicides” (FMC CORPORATION, priority 2015, dated 2024).)
